Converted amounts (≈) assume the structure as drawn.
Experiments:
Raw 264.7 cells = test: Cytotoxicity in Raw 264.7 cells (MTT assay); assay type: cell-based; design: unit not given here; settings: highest concentration 500 μM
Procedure: (§1) The cytotoxicity of NP-16 and some of it analogues in Raw 264.7 cells was also evaluated by MTT (3-[4,5-dimethylthiazol-2-yl]-2,5-diphenyltetrazolium bromide) assay according to manufacturer's instructions. A toxic control (1%) SDS was included to ensure the MTT assay was working properly. The highest concentration of NP-16 analogues used was 500 μM due to solubility limitations. SigmaPlot 11.0 (SPSS, IL) was used for graph plotting. Experiments were carried out in triplicate and repeated twice.
(§2) The cytotoxicity of NP-16 and some of it analogues was tested against Raw 264.7 cells, and the cell tolerance of each compounds were documented in Table 3. Along with the in vitro staphyloxanthin production of the NP-16 analogues were being tested, the compounds can exert staphyloxanthin production inhibition. The staphyloxanthin from the overnight-cultured bacteria were extracted with methanol and quantified in via spectrophotometry. The results were presented in relative ratio to NP-16 in both the inhibition ratio as well as the TC50 in Table 3 (compound/analogue numbers correspond to those listed in Table 1).

[1] = tested on: S. aureus pigment formation (staphyloxanthin production); test: In vitro pigment inhibition / staphyloxanthin production in S. aureus; assay type: cell-based, Staphylococcus aureus; settings: S. aureus USA300, staphyloxanthin methanol extract OD 450 nm, compounds 300 nM to 700 nM, NP16 = 1
Procedure: S. aureus was propagated in Brain Heart Infusion broth (BHI) or on BHI agar (Oxoid). The in vitro pigment inhibition studies were performed by S. aureus USA300 cultured in BHI with or without the presence of inhibitor compounds at 37° C. and 250 rpm for 36-48 hours. The bacteria were washed twice with PBS prior to the staphyloxanthin purification with methanol. The OD of the extracts were monitor at 450 nm using DTX880 multi-plate reader spectrophotometer (Beckman). The concentration range tested for the compounds were between 300 nM to 700 nM, and control groups were added with equal volume of DMSO.
(§3) The IC50 values were obtained by fitting the inhibition data to a normal dose-response curve in SigmaPlot (CA).
as §2

[2] = Solubility limit in cytotoxicity testing; assay type: physicochemical; settings: cytotoxicity (MTT) assay medium; read-out: Highest concentration that could be used due to solubility limitations
Procedure: (§4) The cytotoxicity of NP16 in MDCK cells was evaluated by MTT (3-[4,5-dimethylthiazol-2-yl]-2,5-diphenyltetrazolium bromide) assay according to manufacturer's instructions. A toxic control (1%) SDS was included to ensure the MTT assay was effective. The highest concentration of NP16 that could be used was 500 μM due to solubility limitations. SigmaPlot 11.0 (SPSS, IL) was used for graph plotting. Experiments were repeated twice in triplicate.
as §1

MDCK cells = test: Cytotoxicity in MDCK cells (MTT assay); assay type: cell-based; settings: up to 500 μM
Procedure: as §4, §3

[3] = target: 4,4-diapophytoene desaturase (CrtN) (Staphylococcus aureus, UniProt Q7A3E2); settings: reference [5]; cited from earlier work
Chain of 4,4-diapophytoene desaturase (CrtN) (Q7A3E2 whole entry): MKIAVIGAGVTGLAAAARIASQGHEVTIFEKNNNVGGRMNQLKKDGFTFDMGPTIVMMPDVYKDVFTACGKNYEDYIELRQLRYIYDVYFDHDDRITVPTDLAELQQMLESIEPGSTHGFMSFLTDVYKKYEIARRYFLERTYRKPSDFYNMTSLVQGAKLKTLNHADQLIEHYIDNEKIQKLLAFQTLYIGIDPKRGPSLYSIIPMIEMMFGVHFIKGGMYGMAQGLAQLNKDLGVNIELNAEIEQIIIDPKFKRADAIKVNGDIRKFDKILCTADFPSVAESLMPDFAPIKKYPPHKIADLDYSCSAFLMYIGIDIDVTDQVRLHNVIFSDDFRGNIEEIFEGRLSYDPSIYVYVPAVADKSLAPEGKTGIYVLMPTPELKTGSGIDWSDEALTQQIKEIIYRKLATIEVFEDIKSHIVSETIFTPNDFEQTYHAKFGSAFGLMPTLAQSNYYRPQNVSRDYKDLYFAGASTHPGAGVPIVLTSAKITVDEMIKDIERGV

[4] = tested on: polymorphonuclear leukocytes; settings: at high concentrations, reference [14]; cited from earlier work

What does the source list for `CC(=O)Oc1ccc(/C=C/C(=O)Nc2ccc(S(=O)(=O)N3CCCC3)cc2)cc1` [Compound 19, 3-(4-acetoxylphenyl)-N-[4-(1-pyrrolidinylsulfonyl)phenyl]acryl-amide]?
TC50 to Raw 264.7 cells (Raw 264.7 cells): ~150; Relative ratio to NP16 based on inhibition ratio [1]: 0.86

Which results are given for `O=C(/C=C/c1cccc(Br)c1)Nc1ccc(S(=O)(=O)N2CCCC2)cc1` [Compound 11, 3-(5-bromophenyl)-N-[4-(1-pyrrolidinylsulfonyl)phenyl]acryl-amide]?
TC50 to Raw 264.7 cells (Raw 264.7 cells): >200; Relative ratio to NP16 based on inhibition ratio [1]: 1.03

Which “TC50 to Raw 264.7 cells” value (Raw 264.7 cells) does the source give for `O=C(/C=C/c1ccc(O)cc1)Nc1ccc(S(=O)(=O)N2CCCC2)cc1` [Compound 16, 3-(4-hydroxylphenyl)-N-[4-(1-pyrrolidinylsulfonyl)phenyl]acryl-amide] here?
The value was 75.

And the “Relative ratio to NP16 based on inhibition ratio” value [1]?
Its value is 0.33.

With `O=C(/C=C/c1ccccc1)Nc1ccc(S(=O)(=O)N2CCCC2)cc1` [Compound 1, 3-phenyl-N-[4-(1-pyrrolidinylsulfonyl)phenyl]acryl-amide] as the compound, how does the solubility [2] read?
The solubility was 500 µM (≈ 178 µg/mL).

And the “TC50 to Raw 264.7 cells” value (Raw 264.7 cells)?
Its value is >200.

And the “Effect on the growth of MDCK cells” value (MDCK cells)?
The value was “no effect”.

For `O=C(/C=C/c1cccc(-c2ccccc2)c1)Nc1ccc(S(=O)(=O)N2CCCC2)cc1` [Compound 20, 3-(5-phenylphenyl)-N-[4-(1-pyrrolidinylsulfonyl)phenyl]acryl-amide], which “TC50 to Raw 264.7 cells” value (Raw 264.7 cells) is on record?
Its value is >200.

What about the “Relative ratio to NP16 based on inhibition ratio” value [1] of the same compound?
The value was 0.61.

For `CC(=O)Oc1ccccc1/C=C/C(=O)Nc1ccc(S(=O)(=O)N2CCCC2)cc1` [Compound 18, 3-(6-acetoxylphenyl)-N-[4-(1-pyrrolidinylsulfonyl)phenyl]acryl-amide], which “TC50 to Raw 264.7 cells” value (Raw 264.7 cells) is on record?
Its value is ~150.

What about the “Relative ratio to NP16 based on inhibition ratio” value [1] of the same compound?
The value was 0.35.

With `Cc1ccccc1/C=C/C(=O)Nc1ccc(S(=O)(=O)N2CCCC2)cc1` [Compound 15, 3-(6-methylphenyl)-N-[4-(1-pyrrolidinylsulfonyl)phenyl]acryl-amide] as the compound, how does the “TC50 to Raw 264.7 cells” value (Raw 264.7 cells) read?
The value was >200.

And the “Relative ratio to NP16 based on inhibition ratio” value [1]?
Its value is 1.73.

With `c1ccc(Nc2ccccc2)cc1` [Diphenylamine] as the compound, how does the “Inhibition of CrtN” value [3] read?
Its value is “high micromolar level”.

Which results are given for `O=C(/C=C/c1ccc(Br)cc1)Nc1ccc(S(=O)(=O)N2CCCC2)cc1` [Compound 13, 3-(4-bromophenyl)-N-[4-(1-pyrrolidinylsulfonyl)phenyl]acryl-amide]?
TC50 to Raw 264.7 cells (Raw 264.7 cells): >200; Relative ratio to NP16 based on inhibition ratio [1]: 0.25

For `CN(C/C=C/c1ccccc1)Cc1cccc2ccccc12` [naftifine], which “Chemotaxis, chemokinesis, chemiluminescence and superoxide anion production of polymorphonuclear leukocytes” value [4] is on record?
Its value is “suppress”.

What does the source list for `CC(=O)Oc1cccc(/C=C/C(=O)Nc2ccc(S(=O)(=O)N3CCCC3)cc2)c1` [Compound 17, 3-(5-acetoxylphenyl)-N-[4-(1-pyrrolidinylsulfonyl)phenyl]acryl-amide]?
TC50 to Raw 264.7 cells (Raw 264.7 cells): ~75; Relative ratio to NP16 based on inhibition ratio [1]: 0.58

Which “TC50 to Raw 264.7 cells” value (Raw 264.7 cells) does the source give for `Cc1ccc(/C=C/C(=O)Nc2ccc(S(=O)(=O)N3CCCC3)cc2)cc1` [Compound 14, 3-(4-methylphenyl)-N-[4-(1-pyrrolidinylsulfonyl)phenyl]acryl-amide] here?
The value was >200.

What about the “Relative ratio to NP16 based on inhibition ratio” value [1] of the same compound?
The value was 0.83.

For `O=C(/C=C/c1ccccc1Br)Nc1ccc(S(=O)(=O)N2CCCC2)cc1` [Compound 12, 3-(6-bromophenyl)-N-[4-(1-pyrrolidinylsulfonyl)phenyl]acryl-amide], which “TC50 to Raw 264.7 cells” value (Raw 264.7 cells) is on record?
The value was >200.

What about the “Relative ratio to NP16 based on inhibition ratio” value [1] of the same compound?
Its value is 2.35.
